According to US20080194880A1, “Process For the Preparation of Polymorphs of Mesotrione” (priority 2004, published 2008):

Columns and labels:
Type in all cases: physicochemical
[1] = Conversion of isolated Form 2 mesotrione to Form 1 in water in the presence of xylene at different pH; settings: xylene:mesotrione 1:5, 21 °C
Text: This is an example of the conversion of already isolated Form 2 mesotrione to Form 1 mesotrione in the presence of solvent. A 10% solution of Form 2 in water was made at different pH values ranging from 2 to 6. If seeded, a seed concentration of 2% Form 1 relative to the Form 2 mesotrione concentration was used. A 1:5 ratio of xylene to mesotrione was used in these experiments. Actual conversion time may be less than shown.

[2] = Conversion of in-process Form 2 mesotrione slurry from the crystallizer to Form 1; settings: not seeded
Text: This is an example of converting in process Form 2 mesotrione to Form 1 mesotrione. Form 2 material was made in the plant via a process upset. […]

[3] = Conversion of isolated Form 2 mesotrione to Form 1 in process filtrate with TEA and NaCl; settings: not seeded
[4] = Conversion of isolated Form 2 mesotrione to Form 1 in process filtrate
[5] = Polymorphic stability of pure mesotrione in aqueous suspension at pH 1 to 4
Protocol: 1.6 g of the re-crystallised mesotrione crystals were stirred with water (30 ml) in a reaction flask and the pH increased to 12 by the addition of sodium hydroxide. 1.5 ml of 10% hydrochloric acid was added over 15 minutes to reduce the pH of the solution to pH ranges between 1 and 4. The suspension was stirred and the polymorphic form of the crystals was determined as Form 2 by optical microscopy and FT-IR. Below pH 2.5, Form 2 transformed to Form 1 within 1 hour. At pH 3 Form 2 was stable but converted to Form 1 when seeded with Form 1 over four hours.

[6] = Stabilising Form 2 mesotrione in a 0.05% Rhodasurf DA630 solution; settings: pH 5.5, after 10 days
Protocol: 0.5 g of Form 2 mesotrione crystals were stirred with a 0.05% Rhodasurf DA630 (15 ml) in a reaction flask. A pH probe was placed in the system and the pH was increased to 11.5 by the addition of 0.6 ml of 10% sodium hydroxide solution. The pH of the solution was reduced to 5.5 by the addition of 0.74 g of Form 2 mesotrione. The polymorphic form of the mesotrione was monitored periodically by microscopy and FT-IR.

CS(=O)(=O)c1ccc(C(=O)C2C(=O)CCCC2=O)c([N+](=O)[O-])c1 [Form 2 mesotrione, 2-(4-methylsulphonyl-2-nitrobenzoyl)cyclohexane-1,3-dione]
Dominant Polymorph Form (IR) ([1]; Example 1A: 10% Form 2 in water, 6.3 hr, pH 2.0, seeded 2% Form 1): 1 | Dominant Polymorph Form (IR) ([1]; Example 1B: 10% Form 2 in water, 6.3 hr, pH 2.9, seeded 2% Form 1): 2 | Dominant Polymorph Form (IR) ([1]; Example 1C: 10% Form 2 in water, 6.3 hr, pH 4.1, seeded 2% Form 1): 2 | Dominant Polymorph Form (IR) ([1]; Example 1D: 10% Form 2 in water, 6.3 hr, pH 5.9, seeded 2% Form 1): 2 | Dominant Polymorph Form (IR) ([1]; Example 1E: 10% Form 2 in water, 6.3 hr, pH 2.5, seeded 2% Form 1): 1 | Dominant Polymorph Form (IR) ([1]; Example 1F: 10% Form 2 in water, 6.3 hr, pH 5.1, seeded 2% Form 1): 2 | Dominant Polymorph Form (IR) ([1]; Example 1G: 10% Form 2 in water, 23.3 hr, pH 2.0, seeded 2% Form 1): 1 | Dominant Polymorph Form (IR) ([1]; Example 1H: 10% Form 2 in water, 23.3 hr, pH 2.9, seeded 2% Form 1): 2 | Dominant Polymorph Form (IR) ([1]; Example 1I: 10% Form 2 in water, 23.5 hr, pH 5.9, seeded 2% Form 1): 2 | Dominant Polymorph Form (IR) ([1]; Example 1J: 10% Form 2 in water, 23.5 hr, pH 2.5, seeded 2% Form 1): 1 | Dominant Polymorph Form (IR) ([1]; Example 1K: 10% Form 2 in water, 23.5 hr, pH 2.0, not seeded): 1 | Dominant Polymorph Form (IR) ([1]; Example 1L: 10% Form 2 in water, 22.0 hr, pH 2.0, not seeded): 1 | Dominant Polymorph Form (IR) ([1]; Example 1M: 10% Form 2 in water, 22.0 hr, pH 4.0, not seeded): 2 | Hours to convert ([2]; Example 2A: Form 2 slurry, 20° C., pH 3.2, not agitated, did not convert after 4-5 days): Did not | Hours to convert ([2]; Example 2B: Form 2 slurry, 40° C., pH 2.0, agitated): 4 h | Hours to convert ([2]; Example 2C: Form 2 slurry, 50° C., pH 2.0, agitated): 1.4 h | Hours to convert ([2]; Example 2D: Form 2 slurry, 50° C., pH 2.9, agitated): 1.8 h | Hours to convert ([2]; Example 2E: Form 2 slurry, 40° C., pH 2.0, agitated): 4 h | Hours to convert ([3]; Example 3A: process filtrate, temp 40, pH 1.8, no meso:TEA or meso:NaCl ratio printed, agitated): 17 h | Hours to convert ([3]; Example 3B: process filtrate, temp 50, pH 2.0, meso:TEA 1:1.3, meso:NaCl 2:1, agitated): 1 h | Hours to convert ([3]; Example 3C: process filtrate, temp 50, pH 2.0, meso:TEA 1:1.3, meso:NaCl 2:1, agitated): 5 h | Hours to convert ([3]; Example 3D: process filtrate, temp 50, pH 1.8, meso:TEA 1:1.3, meso:NaCl 2:1, agitated): 4 h | Hours to convert ([4]; Example 4A: process filtrate, temp 22, pH 3.6, agitated, seeded, did not convert after 52 hrs): Did not | Hours to convert ([4]; Example 4B: process filtrate, temp 22, pH 3.6, agitated, seeded, did not convert after 48 hrs): Did not | Hours to convert ([4]; Example 4C: process filtrate, temp 30, pH 3.6, agitated, seeded, did not convert after 18 hrs): Did not | Hours to convert ([4]; Example 4D: process filtrate, temp 50, pH 2.0, agitated, not seeded): 2 h | Hours to convert ([4]; Example 4E: process filtrate, temp 50, pH 1.8, agitated, not seeded): 2 h | Hours to convert ([4]; Example 4F: process filtrate, temp 50, pH 1.8, not agitated, not seeded): 2 h | Transformation of Form 2 to Form 1 ([5]; aqueous suspension, pH between 3.5 and 4, heated to 40° C., 1% by weight of Form 1 seeds added): would not transform to Form 1 | Polymorphic form of the suspension ([5]; pH between 3.5 and 4, determined periodically over the next 3 weeks): always found to be Form 2 | Transformation of Form 2 to Form 1 ([5]; pH between 3.5 and 4, samples taken several months later): had not transformed to Form 1 | Time for Form 2 to transform to Form 1 ([5]; stirred aqueous suspension, below pH 2.5): ≤ 1 h | Polymorphic stability of Form 2 ([5]; stirred aqueous suspension, pH 3, not seeded): stable | Time for Form 2 to convert to Form 1 ([5]; stirred aqueous suspension, pH 3, seeded with Form 1): four | Polymorphic form (microscopy and FT-IR) [6]: still predominately Form 2
